Assay results reported in ChEMBL document CHEMBL5291721, “A preclinical secondary pharmacology resource illuminates target-adverse drug reaction associations of marketed drugs” (Nat Commun, 2023).
*1 amine or outer side, *2 acyl side, *3 side chain or, on linkers, in order; H or OH if unused. Where a SMILES comes first, the peptide text is derived from it. Bridges are numbered along the chain shown (N, C = ends). [ ]: non-standard residue; d: D form. The star is where a group is joined. hTyr(3S-OH,4S-OH,3'-OSO3H) = N[C@H](C(=O)O)[C@H](O)[C@@H](O)c1ccc(O)c(OS(=O)(=O)O)c1; Orn(4R-OH,5R-OH) = O=C([C@H](C[C@@H](O)[C@@H](O)N[*:3])N[*:1])[*:2]; Pro(3S-OH,4S-Me) = C[C@H]1CN[C@H](C(=O)O)[C@H]1O; X1 = CCCCCOc1ccc(-c2cc(-c3ccc(C(=O)*)cc3)no2)cc1; Gln(3R-OH) = NC(=O)C[C@@H](O)[C@H](N)C(=O)O; Hyp = O=C(O)[C@@H]1C[C@@H](O)CN1

Experiments:
[1] = biological target: T1, Muscarinic acetylcholine receptor M1 (Homo sapiens, UniProt P11229); type: functional, cell-based
T1 sequence (P11229 whole entry): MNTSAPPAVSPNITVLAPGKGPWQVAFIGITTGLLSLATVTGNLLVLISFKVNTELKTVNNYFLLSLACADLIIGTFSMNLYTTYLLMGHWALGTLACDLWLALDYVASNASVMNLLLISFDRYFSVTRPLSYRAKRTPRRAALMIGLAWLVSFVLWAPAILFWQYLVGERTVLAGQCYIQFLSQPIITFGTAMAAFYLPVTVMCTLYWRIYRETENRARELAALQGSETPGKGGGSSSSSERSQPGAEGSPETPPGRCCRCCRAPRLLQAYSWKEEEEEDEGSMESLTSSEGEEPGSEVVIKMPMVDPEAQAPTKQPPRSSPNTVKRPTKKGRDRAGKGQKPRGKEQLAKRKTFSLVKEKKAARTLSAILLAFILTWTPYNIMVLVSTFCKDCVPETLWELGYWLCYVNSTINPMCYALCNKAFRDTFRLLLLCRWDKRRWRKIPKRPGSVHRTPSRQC

[2] = biological target: T2, 5-hydroxytryptamine receptor 3A (Homo sapiens, UniProt P46098); type: functional
T2 sequence (P46098 whole entry): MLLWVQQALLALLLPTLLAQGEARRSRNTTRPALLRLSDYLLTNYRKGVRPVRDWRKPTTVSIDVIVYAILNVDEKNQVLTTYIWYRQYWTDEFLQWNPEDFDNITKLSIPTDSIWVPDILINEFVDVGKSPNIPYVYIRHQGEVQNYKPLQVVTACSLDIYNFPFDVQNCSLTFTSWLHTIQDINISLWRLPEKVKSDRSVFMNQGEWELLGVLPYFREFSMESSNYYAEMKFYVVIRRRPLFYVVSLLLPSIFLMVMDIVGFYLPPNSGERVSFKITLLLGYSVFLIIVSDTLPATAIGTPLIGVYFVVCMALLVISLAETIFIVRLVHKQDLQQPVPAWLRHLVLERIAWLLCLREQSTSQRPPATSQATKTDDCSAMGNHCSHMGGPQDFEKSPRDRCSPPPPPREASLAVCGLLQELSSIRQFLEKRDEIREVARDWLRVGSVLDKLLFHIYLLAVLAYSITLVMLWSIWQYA

[3] = biological target: Sodium-dependent noradrenaline transporter (Homo sapiens, UniProt P23975)
Chain of Sodium-dependent noradrenaline transporter (P23975 whole entry): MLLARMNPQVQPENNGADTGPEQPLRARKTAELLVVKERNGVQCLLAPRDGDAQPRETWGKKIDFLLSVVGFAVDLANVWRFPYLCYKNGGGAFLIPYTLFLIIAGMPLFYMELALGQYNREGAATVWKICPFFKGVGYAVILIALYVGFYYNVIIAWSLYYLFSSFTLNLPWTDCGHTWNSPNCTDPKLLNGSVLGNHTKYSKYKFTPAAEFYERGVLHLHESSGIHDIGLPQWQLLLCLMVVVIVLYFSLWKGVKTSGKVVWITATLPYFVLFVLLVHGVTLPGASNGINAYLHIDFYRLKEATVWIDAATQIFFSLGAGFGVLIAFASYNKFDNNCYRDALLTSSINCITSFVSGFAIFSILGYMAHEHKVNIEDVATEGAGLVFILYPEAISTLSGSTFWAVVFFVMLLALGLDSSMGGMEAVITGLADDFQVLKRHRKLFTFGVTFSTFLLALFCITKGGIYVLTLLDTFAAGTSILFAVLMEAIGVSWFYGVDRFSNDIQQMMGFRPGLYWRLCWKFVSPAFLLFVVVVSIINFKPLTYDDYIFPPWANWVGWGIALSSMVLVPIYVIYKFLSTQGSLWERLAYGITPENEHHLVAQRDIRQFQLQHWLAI

Thromboxane A2 receptor = biological target: T3, Thromboxane A2 receptor (Homo sapiens, UniProt P21731)
T3 sequence (P21731 whole entry): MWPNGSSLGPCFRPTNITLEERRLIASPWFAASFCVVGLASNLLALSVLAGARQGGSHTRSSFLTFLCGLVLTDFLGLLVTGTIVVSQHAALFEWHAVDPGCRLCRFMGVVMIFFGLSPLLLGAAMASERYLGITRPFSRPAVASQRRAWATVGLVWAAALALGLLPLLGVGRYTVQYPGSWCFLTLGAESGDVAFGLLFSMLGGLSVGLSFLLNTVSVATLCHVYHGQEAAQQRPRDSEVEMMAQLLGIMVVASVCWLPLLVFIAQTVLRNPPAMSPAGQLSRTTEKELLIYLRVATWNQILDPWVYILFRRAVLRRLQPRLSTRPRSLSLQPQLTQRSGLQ

[4] = biological target: T4, Cholecystokinin receptor type A (Homo sapiens, UniProt P32238)
T4 sequence (P32238 whole entry): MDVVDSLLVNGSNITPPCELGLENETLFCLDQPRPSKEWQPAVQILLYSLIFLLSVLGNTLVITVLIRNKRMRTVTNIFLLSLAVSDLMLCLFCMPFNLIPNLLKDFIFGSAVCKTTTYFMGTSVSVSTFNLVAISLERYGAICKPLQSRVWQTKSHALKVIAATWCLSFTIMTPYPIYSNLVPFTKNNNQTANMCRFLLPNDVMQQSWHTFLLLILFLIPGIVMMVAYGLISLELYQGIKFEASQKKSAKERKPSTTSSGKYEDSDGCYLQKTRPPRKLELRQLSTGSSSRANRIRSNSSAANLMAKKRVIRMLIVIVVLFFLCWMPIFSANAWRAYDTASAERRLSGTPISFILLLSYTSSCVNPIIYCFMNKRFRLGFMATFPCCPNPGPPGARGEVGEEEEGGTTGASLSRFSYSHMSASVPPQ

Adenosine receptor A2a = Adenosine receptor A2a (Homo sapiens, UniProt P29274)
Chain of Adenosine receptor A2a (P29274 whole entry): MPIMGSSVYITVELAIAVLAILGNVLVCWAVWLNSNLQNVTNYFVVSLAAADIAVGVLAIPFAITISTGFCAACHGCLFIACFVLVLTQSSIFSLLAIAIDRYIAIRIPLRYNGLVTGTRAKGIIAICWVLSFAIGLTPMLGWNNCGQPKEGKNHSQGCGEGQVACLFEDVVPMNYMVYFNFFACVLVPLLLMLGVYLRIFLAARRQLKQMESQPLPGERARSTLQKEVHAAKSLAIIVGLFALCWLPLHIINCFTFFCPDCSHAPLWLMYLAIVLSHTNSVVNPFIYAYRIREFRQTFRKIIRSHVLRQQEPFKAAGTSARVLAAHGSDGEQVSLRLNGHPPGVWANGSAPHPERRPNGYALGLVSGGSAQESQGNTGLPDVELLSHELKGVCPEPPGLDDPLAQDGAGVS

[5] = biological target: T5, Alpha-1A adrenergic receptor (Homo sapiens, UniProt P35348); type: functional, cell-based
T5 sequence (P35348 whole entry): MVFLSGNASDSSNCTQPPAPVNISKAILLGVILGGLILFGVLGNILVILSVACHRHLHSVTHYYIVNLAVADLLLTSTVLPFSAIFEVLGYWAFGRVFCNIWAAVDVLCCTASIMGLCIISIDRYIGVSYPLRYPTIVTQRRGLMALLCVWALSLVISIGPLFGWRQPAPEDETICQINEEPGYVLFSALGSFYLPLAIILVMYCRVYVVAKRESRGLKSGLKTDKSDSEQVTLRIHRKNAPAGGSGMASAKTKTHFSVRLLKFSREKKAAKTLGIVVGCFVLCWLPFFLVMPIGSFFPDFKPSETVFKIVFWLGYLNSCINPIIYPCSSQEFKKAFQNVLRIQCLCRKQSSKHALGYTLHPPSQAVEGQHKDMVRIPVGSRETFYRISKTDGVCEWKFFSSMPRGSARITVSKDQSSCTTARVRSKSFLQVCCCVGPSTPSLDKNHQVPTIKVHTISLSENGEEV

Cannabinoid receptor 1 = Cannabinoid receptor 1 (Homo sapiens, UniProt P21554); type: functional, cell-based
Chain of Cannabinoid receptor 1 (P21554 whole entry): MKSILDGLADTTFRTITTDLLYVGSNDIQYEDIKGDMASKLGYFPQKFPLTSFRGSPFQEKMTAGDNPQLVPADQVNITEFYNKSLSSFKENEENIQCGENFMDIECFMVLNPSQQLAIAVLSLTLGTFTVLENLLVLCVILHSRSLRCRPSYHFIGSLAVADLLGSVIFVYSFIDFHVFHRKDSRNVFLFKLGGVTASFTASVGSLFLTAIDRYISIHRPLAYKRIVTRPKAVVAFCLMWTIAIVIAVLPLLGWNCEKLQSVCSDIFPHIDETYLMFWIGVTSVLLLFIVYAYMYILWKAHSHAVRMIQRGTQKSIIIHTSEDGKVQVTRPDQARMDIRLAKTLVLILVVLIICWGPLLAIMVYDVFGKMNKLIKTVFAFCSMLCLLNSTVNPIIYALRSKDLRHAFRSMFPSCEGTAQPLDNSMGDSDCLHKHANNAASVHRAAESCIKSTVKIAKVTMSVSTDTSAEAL

Endothelin-1 receptor = biological target: T6, Endothelin-1 receptor (Homo sapiens, UniProt P25101)
T6 sequence (P25101 whole entry): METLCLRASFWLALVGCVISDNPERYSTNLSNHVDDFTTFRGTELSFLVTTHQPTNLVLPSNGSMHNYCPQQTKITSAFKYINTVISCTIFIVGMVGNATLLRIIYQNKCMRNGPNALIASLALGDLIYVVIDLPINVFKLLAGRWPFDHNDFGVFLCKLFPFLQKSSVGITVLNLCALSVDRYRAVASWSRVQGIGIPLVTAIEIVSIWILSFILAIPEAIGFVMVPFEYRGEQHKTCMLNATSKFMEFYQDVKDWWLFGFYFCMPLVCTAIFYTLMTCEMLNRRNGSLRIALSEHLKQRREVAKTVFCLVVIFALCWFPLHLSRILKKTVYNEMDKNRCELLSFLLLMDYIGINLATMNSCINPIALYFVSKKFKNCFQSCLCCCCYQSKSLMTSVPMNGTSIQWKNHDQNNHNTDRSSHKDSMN
Further: assay procedure not described here.

Row | Compound | AC50 [1] [µM] | further results
1 | COc1nccnc1NS(=O)(=O)c1ccc(N)cc1 | > 30 | 
2 | O=C(Nc1cccc2c(=O)cc(-c3nnn[nH]3)oc12)c1ccc(OCCCCc2ccccc2)cc1 | > 30 | 
3 | NC(=O)c1nc(F)c[nH]c1=O | > 30 | 
4 | CN(C)CCCN1C(=O)c2cc([N+](=O)[O-])ccc2Oc2ccccc21 | > 30 | 
5 | O=C(O)COc1nn(Cc2ccccc2)c2ccccc12 [BENDAZAC] | > 30 | 
6 | Cc1ccc([C@@H]2O[C@H](CO)[C@@H](O)[C@H](O)[C@H]2O)cc1Cc1ccc(-c2ccc(F)cc2)s1 [CANAGLIFLOZIN ANHYDROUS] | > 30 | 
7 | CN(C)CCN(Cc1ccc(Cl)cc1)c1ccccn1 [CHLOROPYRAMINE] | 2.27 | 
8 | O=C(O)c1cc(=O)c2ccccc2o1 [CHROMOCARB] | > 30 | 
9 | CN(CC(=O)O)C(=N)N [CREATINE] | > 30 | 
10 | N[C@@H](CSSC[C@H](N)C(=O)O)C(=O)O [CYSTINE] | > 30 | 
11 | C[C@]12CC[C@@H]3c4ccc(O)cc4CC[C@H]3[C@@H]1CC[C@@H]2OC(=O)CCC1CCCC1 [ESTRADIOL CYPIONATE] | > 30 | 
12 | C[C@]12CCC(=O)C=C1CC[C@@H]1[C@@H]2[C@@H](O)C[C@@]2(C)[C@H]1CC[C@]2(O)C(=O)COC(=O)CCC(=O)O [HYDROCORTISONE HEMISUCCINATE ANHYDROUS] | > 30 | 
13 | N=C(N)NCc1cccc([123I])c1 [IOBENGUANE I 123] | > 30 | 
14 | CC(C)(N)C(=O)N[C@H](Cc1c[nH]c2ccccc12)C(=O)N[C@H](Cc1c[nH]c2ccccc12)NC=O [MACIMORELIN] | > 30 | 
15 | C=C1c2c(Cl)ccc(O)c2C(=O)C2=C(O)[C@]3(O)C(=O)C(C(N)=O)=C(O)[C@@H](N(C)C)[C@@H]3[C@@H](O)[C@H]12 [MECLOCYCLINE] | > 30 | 
16 | Cc1cc2c(OCC(O)CNC(C)C)cccc2[nH]1 (centres undefined) [MEPINDOLOL] | > 30 | 
17 | CC(=O)/N=c1/sc(S(N)(=O)=O)nn1C [METHAZOLAMIDE] | > 30 | AC50 [2]: > 30 µM; AC50 [3]: > 10 µM; AC50 (Thromboxane A2 receptor): > 10 µM; AC50 [4]: > 10 µM; AC50 (Adenosine receptor A2a): > 10 µM

Row | Compound | AC50 [1] [µM] | further results
18 | CCCCCOc1ccc(-c2cc(-c3ccc(C(=O)N[C@H]4C[C@@H](O)[C@@H](O)NC(=O)[C@@H]5[C@@H](O)[C@@H](C)CN5C(=O)[C@H]([C@H](O)CC(N)=O)NC(=O)[C@H]([C@H](O)[C@@H](O)c5ccc(O)c(OS(=O)(=O)O)c5)NC(=O)[C@@H]5C[C@@H](O)CN5C(=O)[C@H]([C@@H](C)O)NC4=O)cc3)no2)cc1 [MICAFUNGIN] (X1-[Orn(4R-OH,5R-OH)]T[Hyp][hTyr(3S-OH,4S-OH,3'-OSO3H)][Gln(3R-OH)][Pro(3S-OH,4S-Me)]; lactam 1-C) | > 30 | 
19 | CCOc1ccc2ccccc2c1C(=O)N[C@@H]1C(=O)N2[C@@H]1SC(C)(C)[C@@H]2C(=O)O [NAFCILLIN] | > 30 | 
21 | CCCCCCCCCCC[C@@H](C[C@@H]1OC(=O)[C@H]1CCCCCC)OC(=O)[C@H](CC(C)C)NC=O [ORLISTAT] | > 30 | 
22 | O=C1[C@H]2CCCC[C@H]2C(=O)N1CCCCN1CCN(c2nsc3ccccc23)CC1 [PEROSPIRONE] | > 30 | 
23 | CN(C)CCC(c1ccccc1)c1ccccn1 (centres undefined) [PHENIRAMINE] | > 30 | 
24 | CC(C)COc1ccc(CNC(=O)N(Cc2ccc(F)cc2)C2CCN(C)CC2)cc1 [PIMAVANSERIN] | 29.9 | 
25 | CC(C)(C)C(=O)NCCCC(=O)O [PIVAGABINE] | > 30 | 
26 | CC(C)[N+](C)(CCOC(=O)C1c2ccccc2Oc2ccccc21)C(C)C [PROPANTHELINE] | > 30 | 
27 | CN(C)C(=O)c1nc(CNC(=O)CN)n(-c2ccc(Cl)cc2C(=O)c2ccccc2Cl)n1 [RILMAZAFONE] | > 30 | 
28 | CC(=O)S[C@@H]1CC2=CC(=O)CC[C@]2(C)[C@H]2CC[C@@]3(C)[C@@H](CC[C@@]34CCC(=O)O4)[C@H]12 [SPIRONOLACTONE] |  | AC50 [2]: > 30 µM; AC50 [3]: > 30 µM; AC50 [5]: > 30 µM; AC50 (Thromboxane A2 receptor): > 30 µM; AC50 [4]: > 30 µM; AC50 (Cannabinoid receptor 1): > 30 µM; AC50 (Endothelin-1 receptor): > 30 µM; AC50 (Adenosine receptor A2a): > 30 µM
29 | NC(=O)NS(=O)(=O)c1ccc(N)cc1 [SULFACARBAMIDE] | > 30 | 
30 | CCCCNc1ccc(C(=O)OCCN(C)C)cc1 [TETRACAINE] |  | AC50 [2]: > 10 µM; AC50 [3]: > 10 µM; AC50 [5]: > 30 µM; AC50 (Thromboxane A2 receptor): > 30 µM; AC50 [4]: > 30 µM; AC50 (Cannabinoid receptor 1): > 30 µM; AC50 (Endothelin-1 receptor): > 30 µM; AC50 (Adenosine receptor A2a): > 30 µM
31 | NCCc1ccc(O)cc1 [TYRAMINE] | > 30 | 
32 | CCCCCCCCCCCCCCCC(=O)OC/C=C(C)/C=C/C=C(C)/C=C/C1=C(C)CCCC1(C)C [VITAMIN A PALMITATE] | > 30 | 
33 | Cc1cc(CC(=O)O)n(C)c1C(=O)c1ccc(Cl)cc1 [ZOMEPIRAC] |  | AC50 [2]: > 30 µM; AC50 [3]: > 30 µM; AC50 [5]: > 30 µM; AC50 (Thromboxane A2 receptor): > 30 µM; AC50 [4]: > 30 µM; AC50 (Cannabinoid receptor 1): > 30 µM; AC50 (Endothelin-1 receptor): > 30 µM; AC50 (Adenosine receptor A2a): > 30 µM
